Reference: patent US20040106804A1 (RICHTER GEDEON VEGYESZETI GYAR RT., priority 2001, published 2004)

Details: speed depends on the conditions of the dehydration

With OC(Cn1cncn1)(Cn1cncn1)c1ccc(F)cc1F [monohydrate, 2-(2,4-Difluorophenyl)-1,3-bis(1,2,4-triazole-1-yl)-propane-2-ol Monohydrate] the “temperature at which the monohydrate is transformed into anhydrous fluconazole ("anhydrate")” value was 40-90 °C.
